Data: paper PMC5028780, “Receptor and transporter binding and activity profiles of albiflorin extracted from Radix paeoniae Alba” (Scientific Reports, 2016)

How the values were obtained:
hDAT [1] = target: T1, hDAT (Homo sapiens, UniProt Q01959); settings: [3H]-win35,428, HEK293 cell line, read-out: Ki values, DAT binding
T1 construct: expressed in transfected cells
Method: Membranes were prepared from HEK293 cells stably expressing hSERT, hNET, or hDAT as described previously. Briefly, [^3H]-citalopram (1 nM), [^3H]-nisoxetine (2 nM), or [^3H]-WIN35,428 (2 nM) was used to label human 5-HT, NE, or DA transporters, respectively.
(§1) All data for inhibition curves were analysed by nonlinear regression using Prism software (GraphPad Software Inc., San Diego, CA) to determine IC50 values. For the microdialysis experiments, two-way repeated-measures ANOVA followed by Tukey’s test was used to compare the percentage increase over baseline between groups, time and treatment as independent factors, and time as the repeated factor.

hDAT [2] = target: T1, hDAT; assay type: cell-based; settings: HEK293 cell line, read-out: IC50 values, uptake of [3H]-DA (DAT)
Method: (§2) The uptake of 5-HT, NE and DA into HEK293 cells stably expressing human transporters was determined using methods previously described with slight modifications. Briefly, the culture medium was removed from cells, and the cells were washed once with phosphate-buffered saline. Krebs-Ringers-HEPES (KRH) assay buffer (100 μL/well, containing 120 mM NaCl, 4.7 mM KCl, 2.2 mM CaCl2, 1.2 mM MgSO4, 1.2 mM […], 10 mM HEPES, pH 7.4) was then added. Various concentrations of drugs were administered to cells in a 24-well plate. The uptake was initiated by the addition of [^3H]-5-HT (50 nM), [^3H]-NE (80 nM), or [^3H]-DA (50 nM). Uptake was terminated by five washes using cold KRH assay buffer after 10-min incubation at 37 °C. The cells were solubilised using 400 μL of scintillation fluid and counted using a Packard Top Count scintillation counter.
as §1

hSERT = target: T2, hSERT (Homo sapiens, UniProt P31645); assay type: cell-based; settings: HEK293 cell line, read-out: IC50 values, uptake of [3H]-5-HT (SERT)
T2 construct: expressed in transfected cells
T2 sequence (P31645 whole entry): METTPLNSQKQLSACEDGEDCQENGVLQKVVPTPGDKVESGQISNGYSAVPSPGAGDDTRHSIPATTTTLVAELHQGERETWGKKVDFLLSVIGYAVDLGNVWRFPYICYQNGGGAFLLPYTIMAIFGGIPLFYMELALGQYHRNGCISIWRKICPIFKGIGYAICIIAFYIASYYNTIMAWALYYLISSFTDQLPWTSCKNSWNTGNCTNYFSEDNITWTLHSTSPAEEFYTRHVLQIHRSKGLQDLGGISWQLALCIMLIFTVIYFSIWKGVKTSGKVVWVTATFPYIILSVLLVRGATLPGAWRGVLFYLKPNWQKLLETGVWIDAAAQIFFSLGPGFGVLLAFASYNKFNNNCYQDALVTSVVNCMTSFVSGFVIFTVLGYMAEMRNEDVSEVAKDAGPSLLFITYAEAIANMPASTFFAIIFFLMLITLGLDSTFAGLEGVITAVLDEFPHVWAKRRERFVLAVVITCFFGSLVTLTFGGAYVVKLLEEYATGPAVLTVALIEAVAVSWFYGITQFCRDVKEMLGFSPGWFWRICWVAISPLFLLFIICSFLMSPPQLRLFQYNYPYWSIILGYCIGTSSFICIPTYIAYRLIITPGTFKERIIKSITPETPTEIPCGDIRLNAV
Method: as §2, §1

DAT = target: T3, DAT (Rattus norvegicus, UniProt P23977); assay type: biochemical; settings: Striatum synaptosome, read-out: IC50 values, uptake of [3H]-DA (DAT)
T3 construct: rat brain synaptosomes were prepared and treated with various concentrations of albiflorin; from tissue; host or cells: Sprague-Dawley rat striatal synaptosomes
T3 sequence (P23977 whole entry): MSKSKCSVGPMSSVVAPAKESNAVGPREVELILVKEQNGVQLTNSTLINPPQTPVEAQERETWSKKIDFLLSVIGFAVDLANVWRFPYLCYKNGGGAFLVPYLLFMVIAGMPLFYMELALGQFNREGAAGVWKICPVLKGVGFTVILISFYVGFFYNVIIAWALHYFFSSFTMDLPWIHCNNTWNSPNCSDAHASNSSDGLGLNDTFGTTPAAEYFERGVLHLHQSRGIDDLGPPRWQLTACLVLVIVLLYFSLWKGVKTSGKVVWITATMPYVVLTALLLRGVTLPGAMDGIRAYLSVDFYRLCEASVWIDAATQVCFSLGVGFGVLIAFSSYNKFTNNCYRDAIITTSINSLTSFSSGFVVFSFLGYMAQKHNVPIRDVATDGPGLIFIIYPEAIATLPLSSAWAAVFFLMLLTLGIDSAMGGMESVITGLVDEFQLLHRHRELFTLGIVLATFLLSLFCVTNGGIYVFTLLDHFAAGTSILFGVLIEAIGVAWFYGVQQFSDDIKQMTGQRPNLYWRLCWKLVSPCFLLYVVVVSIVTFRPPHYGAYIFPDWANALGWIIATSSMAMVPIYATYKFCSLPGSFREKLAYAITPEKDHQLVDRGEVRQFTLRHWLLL
Method: (§3) Male Sprague–Dawley rats were killed by asphyxiation with carbon dioxide and cervical dislocation followed by decapitation. The brains were removed quickly and the cerebral cortex, hypothalamus and striatum were dissected on ice. All dissected tissues were homogenised using a Teflon-glass tissue homogeniser in 4 mL of ice-cold sucrose (0.32 M). The homogenised tissue was centrifuged at 2,000× g for 10 min at 4 °C. […] Bio-Rad protein assay reagents (1:5 ratio) were used to analyse the protein concentration of the synaptosomal suspension. Uptake of 5-HT, NE and DA was determined as described previously. The compounds to be tested were dissolved in DMSO, further diluted with assay buffer, and tested over a 10-log unit concentration range in duplicate. Samples of 30–50 μg of synaptosomes (per sample in a total volume of 200 μL) were preincubated at 37 °C in a shaking water bath for 10 min. Vehicle or modifiers were then added for 10–20 min. Uptake was initiated by adding [^3H]-5-HT (20 nM), [^3H]-NE (20 nM), or [^3H]-DA (50 nM). After a 10-min incubation at 37 °C, uptake was terminated by filtration through (polyethyleneimine-coated) GF/B Whatman filters using a Brandel Cell Harvester (Brandel, Gaithersburg, MD).
(§4) All data for inhibition curves were analysed by nonlinear regression using Prism software (GraphPad Software Inc., San Diego, CA) to determine IC50 values. […]

NET = NET (Rattus norvegicus, UniProt Q63380); assay type: biochemical; settings: Frontal cortex synaptosome, read-out: IC50 values, uptake of [3H]-NE (NET)
Chain of NET (Q63380 1-617): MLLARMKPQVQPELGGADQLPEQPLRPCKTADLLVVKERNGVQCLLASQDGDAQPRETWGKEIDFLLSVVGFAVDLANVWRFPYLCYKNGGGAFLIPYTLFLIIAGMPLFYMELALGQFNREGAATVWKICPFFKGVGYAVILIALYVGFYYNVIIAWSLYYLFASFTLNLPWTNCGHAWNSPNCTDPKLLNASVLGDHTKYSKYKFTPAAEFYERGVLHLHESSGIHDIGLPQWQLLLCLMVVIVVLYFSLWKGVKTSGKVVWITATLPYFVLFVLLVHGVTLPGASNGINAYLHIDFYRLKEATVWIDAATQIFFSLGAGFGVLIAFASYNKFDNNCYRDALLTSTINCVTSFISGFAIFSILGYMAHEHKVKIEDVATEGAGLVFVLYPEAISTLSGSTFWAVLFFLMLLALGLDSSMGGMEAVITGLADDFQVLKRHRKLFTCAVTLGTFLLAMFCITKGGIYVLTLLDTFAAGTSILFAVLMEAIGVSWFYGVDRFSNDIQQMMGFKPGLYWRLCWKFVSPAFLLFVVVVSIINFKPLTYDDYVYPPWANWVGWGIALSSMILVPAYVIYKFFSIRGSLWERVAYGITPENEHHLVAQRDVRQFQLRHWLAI
Method: as §3, §4

5-HT5A = 5-HT5A (Homo sapiens, UniProt P47898); experiment: CNS receptor binding, 5-HT5A; settings: HEK293 cell line, [3H]-LSD(1)
Chain of 5-HT5A (P47898 whole entry): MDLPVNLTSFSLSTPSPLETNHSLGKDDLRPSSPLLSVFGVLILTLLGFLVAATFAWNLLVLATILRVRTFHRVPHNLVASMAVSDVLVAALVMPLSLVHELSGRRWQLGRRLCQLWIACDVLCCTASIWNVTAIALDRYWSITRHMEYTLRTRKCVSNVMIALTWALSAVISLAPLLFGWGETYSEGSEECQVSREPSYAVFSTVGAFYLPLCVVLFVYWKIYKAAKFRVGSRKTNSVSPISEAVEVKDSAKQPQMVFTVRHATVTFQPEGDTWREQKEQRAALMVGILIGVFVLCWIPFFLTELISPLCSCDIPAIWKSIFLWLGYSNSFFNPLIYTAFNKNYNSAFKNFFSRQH
Method: (§5) Albiflorin (10 μM) was tested for numerous other potential binding targets by using standard receptor binding procedures. The tested targets included the following receptors: D1, D2, D3, D4, D5, 5-HT1A, 5-HT1B, 5-HT1D, 5-HT2a, 5-HT2C, 5-HT3, 5-HT5A, 5-HT6, 5-HT7, α1A, α1B, α2A, β1, M1, M2, M3, M4, M5, μ, κ, δ, A1, A2A, H1, H2, H3, H4.

5-HT6 = 5-HT6 (Homo sapiens, UniProt P50406); experiment: CNS receptor binding, 5-HT6; settings: HEK293 cell line, [3H]-LSD(1)
Chain of 5-HT6 (P50406 whole entry): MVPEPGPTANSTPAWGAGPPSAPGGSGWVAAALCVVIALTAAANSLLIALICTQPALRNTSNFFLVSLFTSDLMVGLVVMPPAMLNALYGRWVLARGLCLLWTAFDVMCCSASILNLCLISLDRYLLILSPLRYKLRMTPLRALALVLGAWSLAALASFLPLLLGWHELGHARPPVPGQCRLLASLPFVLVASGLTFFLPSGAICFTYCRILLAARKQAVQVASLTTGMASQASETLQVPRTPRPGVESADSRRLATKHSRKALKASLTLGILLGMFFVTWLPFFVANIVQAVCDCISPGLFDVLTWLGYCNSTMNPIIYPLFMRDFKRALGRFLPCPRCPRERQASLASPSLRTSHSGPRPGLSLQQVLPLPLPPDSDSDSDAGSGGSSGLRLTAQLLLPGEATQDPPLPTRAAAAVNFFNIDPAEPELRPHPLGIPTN
Method: as §5

[3] = test system: DA levels in the hypothalamus; experiment: In vivo microdialysis, extracellular DA; settings: oral, 3.5, 7.0 and 14.0 mg/kg, rats
Method: The effect of albiflorin on extracellular monoamine levels in […] was determined using methods previously described. Microdialysis probes (CMA Microdialysis) with an active membrane surface of 2 mm were perfused with artificial cerebrospinal fluid (125 mM NaCl, 3 mM KCl, 0.75 mM MgSO4 and 1.2 mM CaCl2, pH 7.4) in situ for at least 18 h before experimentation. The microdialysis probe was then implanted via the guide cannula into the hypothalamus and perfused with artificial cerebral spinal fluid at a flow rate of 1 μL/min. A 3-h stabilisation period was allowed after probe implantation, and dialysate sampling was conducted according to previously described methods. […] All subsequent values were expressed as a percentage of the mean preinjection value (i.e., percentage of baseline). […] For a minimum of 3 h after albiflorin administration, dialysis samples were collected every 20 min and analysed to determine the levels of NE, 5-HT and DA. […] A 20-μL sample from the hypothalamus was analysed for 5-HT, NE and DA content using methods described previously. […] External standard curves were used to quantify the amounts of NE, 5-HT and DA in each sample, which was calculated using the area under the curve.
as §4

[4] = read-out: IC50 values for albiflorin

T1 sequence (Q01959 whole entry): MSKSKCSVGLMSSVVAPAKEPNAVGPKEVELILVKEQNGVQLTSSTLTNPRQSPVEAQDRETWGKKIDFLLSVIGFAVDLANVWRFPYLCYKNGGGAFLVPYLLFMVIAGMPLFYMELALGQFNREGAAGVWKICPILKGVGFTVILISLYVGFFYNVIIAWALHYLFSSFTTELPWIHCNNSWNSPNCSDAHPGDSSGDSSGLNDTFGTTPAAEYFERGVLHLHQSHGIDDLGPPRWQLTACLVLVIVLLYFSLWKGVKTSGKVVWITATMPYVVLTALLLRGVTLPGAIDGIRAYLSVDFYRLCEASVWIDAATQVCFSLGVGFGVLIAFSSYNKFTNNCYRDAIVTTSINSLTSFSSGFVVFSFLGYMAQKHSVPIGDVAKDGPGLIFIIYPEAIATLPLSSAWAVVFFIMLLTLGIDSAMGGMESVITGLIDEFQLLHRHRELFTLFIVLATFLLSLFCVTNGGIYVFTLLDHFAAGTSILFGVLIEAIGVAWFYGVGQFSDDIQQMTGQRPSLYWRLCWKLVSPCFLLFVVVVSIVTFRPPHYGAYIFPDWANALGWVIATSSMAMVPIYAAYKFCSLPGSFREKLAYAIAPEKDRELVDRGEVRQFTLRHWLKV

SMILES: C[C@]12C[C@@H](O)[C@@H]3C[C@@]1(O[C@@H]1O[C@H](CO)[C@@H](O)[C@H](O)[C@H]1O)[C@@]3(COC(=O)c1ccccc1)C(=O)O2 [albiflorin, Albiflorin]
- Ki (hDAT [1]): 1.48 ± 0.0333 µM
- IC50 (hDAT [2]): 2.24 ± 0.025 µM
- IC50 (hSERT): 0.00236 ± 0.00074 µM
- IC50 (DAT): 3.69 ± 0.114 µM
- IC50 (NET): 0.00098 ± 0.00024 µM
- % Inhibition of binding at 10 μM albiflorin (5-HT5A): 20.11%
- IC50 (5-HT5A; [4]): > 10 µM
- % Inhibition of binding at 10 μM albiflorin (5-HT6): 22.36%
- IC50 (5-HT6; [4]): > 10 µM
- effect on DA levels in the hypothalamus [3]: not elevated
